This note sets out measurements from patent publication US10189887B2, “Polypeptides and uses thereof for reducing CD95-mediated cell motility” (INSERM (INSTITUT NATIONAL DE LA SANTÉ ET DE LA RECHERCHE …, priority 2014, dated 2019).

In assay [1] the test system is CD95-mediated Ca^2+ response. The experiment in a line: Calcium response to cl-CD95L in Jurkat cells (Fura2/FuraPE3 video imaging). It counts as cell-based. As to conditions: Jurkat pre-incubated 1 hr, 10 μM peptide, 100 ng/ml cl-CD95L. As for the experimental part:
Cells were loaded with Fura2-AM (1 μM) at resting temperature for 30 min in Hank's Balanced Salt Solution (HBSS). After washing with HBSS, the cells were incubated for 15 min in the absence of Fura2-AM to complete de-esterification of the dye. Cells were placed in a thermostated chamber (37° C.) of an inverted epifluorescence microscope (Olympus IX70) equipped with a ×40, UApo/340-1.15 W water-immersion objective (Olympus), and fluorescence micrograph images were captured at 510 nm and at 12-bit resolution by a fast-scan camera (CoolSNAP fx Monochrome, Photometrics). To minimize UV light exposure, 4×4 binning function was used. Fura2-AM was alternately excited at 340 and 380 nm, and ratios of the resulting images (excitations at 340 and 380 nm and emission filter at 520 nm) were produced at constant intervals (5 s or 10 s according to the stimulus). […] Fluorescent images were pseudocolored using the IMD display mode in MetaFluor and assembled without further manipulation in Photoshop (Adobe). Raw data were acquired with MetaFluor and graphed in Origin (OriginLab). [Ca^2+]i was calculated using the following equation: [Ca^2+]i=Kd(R−Rmin)/(R−Rmax)×Sf2/Sf1, where Kd is the Fura2-AM dissociation constant at the two excitation wavelengths (F340/F380); Rmin is the fluorescence ratio in the presence of minimal calcium, obtained by chelating Ca^2+ with 10 mM EGTA; Rmax is the fluorescence ratio in the presence of excess calcium, obtained by treating cells with 1 μM ionomycin; Sf2 is the fluorescence of the Ca^2+-free form; and Sf1 is the fluorescence of the Ca^2+-bound form of Fura2-AM at excitation wavelengths of 380 and 340 nm, respectively. In some experiments cells were placed in a Ca^2+-free medium consisting of the HBSS described above in which CaCl2 was omitted and 100 μM EGTA was added in order to chelate residual Ca^2+ ions. This medium was added to the cells just before recording to avoid leak of the intracellular calcium stores.
(§1) T cells were loaded with Fura-PE3-AM (1 μM) at room temperature for 30 min in Hank's Balanced Salt Solution (HBSS). After washing, the cells were incubated for 15 min in the absence of Fura-PE3-AM to complete de-esterification of the dye. Cells were placed in the temperature controlled chamber (37° C.) of an inverted epifluorescence microscope (Olympus IX70) equipped with an ×40 UApo/340-1.15 W water-immersion objective (Olympus), and fluorescence micrograph images were captured at 510 nm and 12-bit resolution by a fast-scan camera (CoolSNAP fx Monochrome, Photometrics). To minimize UV light exposure, a 4×4 binning function was used. Fura-PE3 was alternately excited at 340 and 380 nm, and the ratios of the resulting images (emission filter at 520 nm) were produced at constant intervals (10 seconds). The Fura-PE3 ratio (Fratio 340/380) images were analyzed offline with Universal Imaging software, including Metafluor and Metamorph. Fratio reflects the intracellular Ca^2+ concentration changes. Each experiment was repeated 3 times, and the average of more than 20 single-cell traces was analyzed.

Assay [2] relates to PLCγ1-dependent Ca^2+ response to TCR stimulation. The experiment in a line: Ca^2+ response to TCR stimulation (selectivity). The class given is cell-based. As to conditions: TAT-CID pretreatment. On the procedure: as §1

With “TAT-CID: cell penetrating peptide linking the 36-amino acid-stretch of CID (CD95 residues 175 to 210) to the HIV-TAT sequence; SEQ ID NO: 6 (RKKRRQRRRKRKEVQKTCRKHRKENQGSHESPTLNPETVAINLSD; TAT-CID)”, the “calcium response to cl-CD95L” value in assay [1] is “abolished the induction of the CD95-mediated Ca^2+ signal”; in assay [1] (listed as TAT CID 175-210), “greatly reduced the calcium response”. In assay [2], the “PLCγ1-dependent Ca^2+ response to TCR stimulation” value is “did not alter this signal”.
